Assay results taken from patent US8946223B2, “Substituted hydroxamic acids and uses thereof” (Millennium Pharmaceuticals, Inc., priority 2010, dated 2015).

These molecules were tested against T1, purified human HDAC6 (Homo sapiens, UniProt Q9UBN7) (assay: HDAC6 enzyme assay). Settings: bin: less than 100 nM.
T1 construct: purchased BPS Bioscience 5006
T1 sequence (Q9UBN7 1-1215): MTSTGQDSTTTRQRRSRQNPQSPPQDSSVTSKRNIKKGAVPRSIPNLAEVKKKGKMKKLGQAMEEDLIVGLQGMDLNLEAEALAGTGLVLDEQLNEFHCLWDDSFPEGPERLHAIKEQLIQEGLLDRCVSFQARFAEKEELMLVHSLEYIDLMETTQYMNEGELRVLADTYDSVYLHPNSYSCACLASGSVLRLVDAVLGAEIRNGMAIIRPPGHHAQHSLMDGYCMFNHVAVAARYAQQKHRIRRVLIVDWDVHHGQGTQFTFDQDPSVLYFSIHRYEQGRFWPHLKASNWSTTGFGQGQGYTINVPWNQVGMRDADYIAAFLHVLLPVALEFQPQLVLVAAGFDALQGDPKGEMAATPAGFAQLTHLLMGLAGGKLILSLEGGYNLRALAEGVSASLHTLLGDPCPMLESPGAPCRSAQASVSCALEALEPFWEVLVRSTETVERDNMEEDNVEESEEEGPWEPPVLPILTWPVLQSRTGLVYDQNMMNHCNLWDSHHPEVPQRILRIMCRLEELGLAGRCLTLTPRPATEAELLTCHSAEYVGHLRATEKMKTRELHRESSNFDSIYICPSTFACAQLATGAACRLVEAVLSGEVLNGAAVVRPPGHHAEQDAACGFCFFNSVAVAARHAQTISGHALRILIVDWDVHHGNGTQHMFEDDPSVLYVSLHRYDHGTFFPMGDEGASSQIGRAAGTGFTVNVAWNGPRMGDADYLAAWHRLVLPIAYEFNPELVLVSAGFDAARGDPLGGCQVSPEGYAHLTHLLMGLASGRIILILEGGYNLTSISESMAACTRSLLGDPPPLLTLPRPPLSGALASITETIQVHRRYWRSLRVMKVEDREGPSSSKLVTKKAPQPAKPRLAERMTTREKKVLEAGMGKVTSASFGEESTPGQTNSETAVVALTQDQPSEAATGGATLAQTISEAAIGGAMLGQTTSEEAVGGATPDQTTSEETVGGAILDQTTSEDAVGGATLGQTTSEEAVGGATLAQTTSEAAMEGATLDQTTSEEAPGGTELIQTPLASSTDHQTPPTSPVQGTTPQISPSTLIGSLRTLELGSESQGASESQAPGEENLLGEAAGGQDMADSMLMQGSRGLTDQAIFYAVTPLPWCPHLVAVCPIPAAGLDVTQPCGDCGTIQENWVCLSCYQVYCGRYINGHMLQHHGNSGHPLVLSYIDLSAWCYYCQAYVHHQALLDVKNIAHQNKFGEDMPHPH
Type: biochemical
Description: To measure the inhibition of HDAC6 activity, purified human HDAC6 (BPS Bioscience; Cat. No. 5006) is incubated with substrate Ac-Arg-Gly-Lys(Ac)-AMC peptide (Bachem Biosciences; Cat. No. I-1925) for 1 hour at 30° C. in the presence of test compounds or vehicle DMSO control. The reaction is stopped with the HDAC inhibitor trichostatin A (Sigma; Cat. No. T8552) and the amount of Arg-Gly-Lys-AMC generated is quantitated by digestion with trypsin (Sigma; Cat. No. T1426) and subsequent measurement of the amount of AMC released using a fluorescent plate reader (Pherastar; BMG Technologies) set at Ex 340 nm and Em 460 nm. Concentration response curves are generated by calculating the fluorescence increase in test compound-treated samples relative to DMSO-treated controls, and enzyme inhibition (IC50) values are determined from those curves.
An IC50 of under 100 nM was found for Cn1c(C(=O)N2CCn3cc(C(=O)NO)cc3C2)cc2ccccc21 [Compound I-20, N-hydroxy-2-[(1-methyl-1H-indol-2-yl)carbonyl]-1,2,3,4-tetrahydropyrrolo[1,2-a]pyrazine-7-carboxamide] in this work.
An IC50 of under 100 nM was found for O=C(NO)c1cn2c(n1)CN(C(=O)c1ccc(-c3ccccc3)cc1)CC2 [Compound I-2, 7-(biphenyl-4-ylcarbonyl)-N-hydroxy-5,6,7,8-tetrahydroimidazo[1,2-a]pyrazine-2-carboxamide] in this work.
An IC50 of under 100 nM was found for Cc1onc(-c2ccccc2)c1CN1CCn2cc(C(=O)NO)cc2C1=O [Compound I-197, N-hydroxy-2-[(5-methyl-3-phenylisoxazol-4-yl)methyl]-1-oxo-1,2,3,4-tetrahydropyrrolo[1,2-a]pyrazine-7-carboxamide] in this work.
An IC50 of under 100 nM was found for O=C(NO)c1cc2n(n1)CCN(C(=O)c1ccc(OCc3ccccc3)cc1)C2 [Compound I-17, 5-[4-(benzyloxy)benzoyl]-N-hydroxy-4,5,6,7-tetrahydropyrazolo[1,5-a]pyrazine-2-carboxamide] in this work.
An IC50 of under 100 nM was found for Cc1cc(C(=O)N2CCn3cc(C(=O)NO)cc3C2)c(C)o1 [Compound I-85, 2-(2,5-dimethyl-3-furoyl)-N-hydroxy-1,2,3,4-tetrahydropyrrolo[1,2-a]pyrazine-7-carboxamide] in this work.
An IC50 of under 100 nM was found for Cn1c(C(=O)N2CCn3nc(C(=O)NO)cc3C2)cc2ccccc21 [Compound I-31, N-hydroxy-5-[(1-methyl-1H-indol-2-yl)carbonyl]-4,5,6,7-tetrahydropyrazolo[1,5-a]pyrazine-2-carboxamide] in this work.
An IC50 of under 100 nM was found for Cn1cccc1C(=O)N1CCn2cc(C(=O)NO)cc2C1 [Compound I-32, N-hydroxy-2-[(1-methyl-1H-pyrrol-2-yl)carbonyl]-1,2,3,4-tetrahydropyrrolo[1,2-a]pyrazine-7-carboxamide] in this work.
An IC50 of under 100 nM was found for Cc1cc(C(=O)N2CCn3cc(C(=O)NO)cc3C2)c(C)n1Cc1cccs1 [Compound I-35, 2-{[2,5-dimethyl-1-(2-thienylmethyl)-1H-pyrrol-3-yl]carbonyl}-N-hydroxy-1,2,3,4-tetrahydropyrrolo[1,2-a]pyrazine-7-carboxamide] in this work.
An IC50 of under 100 nM was found for Cc1cc(C(=O)N2CCn3cc(C(=O)NO)cc3C2)c(C)[nH]1 [Compound I-94, 2-[(2,5-dimethyl-1H-pyrrol-3-yl)carbonyl]-N-hydroxy-1,2,3,4-tetrahydropyrrolo[1,2-a]pyrazine-7-carboxamide] in this work.

Same assay, conditions: bins: greater than 1 μM and less than 10 μM; greater than 10 μM
An IC50 of over 10000 nM was found for CCCCN1CCn2cc(C(=O)NO)cc2C1 [Compound I-86, 2-butyl-N-hydroxy-1,2,3,4-tetrahydropyrrolo[1,2-a]pyrazine-7-carboxamide] in this work.
An IC50 of 1000 to 10000 nM was found for CC(C)CCN1CCn2nc(C(=O)NO)cc2C1=O [Compound I-77, N-hydroxy-5-(3-methylbutyl)-4-oxo-4,5,6,7-tetrahydropyrazolo[1,5-a]pyrazine-2-carboxamide] in this work.
An IC50 of 1000 to 10000 nM was found for Cc1c(C(=O)N2CCCn3nc(C(=O)NO)cc3C2)oc2ccccc12 [Compound I-108, N-hydroxy-5-[(3-methyl-1-benzofuran-2-yl)carbonyl]-5,6,7,8-tetrahydro-4H-pyrazolo[1,5-a][1,4]diazepine-2-carboxamide] in this work.
An IC50 of 1000 to 10000 nM was found for CCC(C)NC(=O)N1CCn2cc(C(=O)NO)nc2C1 (centres unmarked) [Compound I-118, N7-(sec-butyl)-N2-hydroxy-5,6-dihydroimidazo[1,2-a]pyrazine-2,7(8H)-dicarboxamide] in this work.
An IC50 of 1000 to 10000 nM was found for CCc1cc(C(=O)N2CCCn3cc(C(=O)NO)cc3C2)n(C)n1 [Compound I-95, 2-[(3-ethyl-1-methyl-1H-pyrazol-5-yl)carbonyl]-N-hydroxy-2,3,4,5-tetrahydro-1H-pyrrolo[1,2-a][1,4]diazepine-8-carboxamide] in this work.
An IC50 of over 10000 nM was found for CS(=O)(=O)c1cccc(C(=O)N2CCn3cc(C(=O)NO)cc3C2)c1 [Compound I-54, N-hydroxy-2-[3-(methylsulfonyl)benzoyl]-1,2,3,4-tetrahydropyrrolo[1,2-a]pyrazine-7-carboxamide] in this work.
An IC50 of 1000 to 10000 nM was found for O=C(NO)c1cc2n(c1)CCCN(C(=O)c1c(Cl)cccc1Cl)C2 [Compound I-79, 2-(2,6-dichlorobenzoyl)-N-hydroxy-2,3,4,5-tetrahydro-1H-pyrrolo[1,2-a][1,4]diazepine-8-carboxamide] in this work.
An IC50 of 1000 to 10000 nM was found for CC(C)(C(=O)N1CCn2nc(C(=O)NO)cc2C1)c1ccc(Cl)cc1 [Compound I-37, 5-[2-(4-chlorophenyl)-2-methylpropanoyl]-N-hydroxy-4,5,6,7-tetrahydropyrazolo[1,5-a]pyrazine-2-carboxamide] in this work.
An IC50 of 1000 to 10000 nM was found for O=C(NO)c1cc2n(n1)CCN(CC1CC1)C2=O [Compound I-83, 5-(cyclopropylmethyl)-N-hydroxy-4-oxo-4,5,6,7-tetrahydropyrazolo[1,5-a]pyrazine-2-carboxamide] in this work.
An IC50 of 1000 to 10000 nM was found for Cn1c(C(=O)N2CCCn3cc(C(=O)NO)cc3C2)cc2oc(-c3ccc(C(F)(F)F)cc3)cc21 [Compound I-5, N-hydroxy-2-({4-methyl-2-[4-(trifluoromethyl)phenyl]-4H-furo[3,2-b]pyrrol-5-yl}carbonyl)-2,3,4,5-tetrahydro-1H-pyrrolo[1,2-a][1,4]diazepine-8-carboxamide] in this work.
An IC50 of 1000 to 10000 nM was found for CC(C)(C)c1ccc(C(=O)N2CCCn3cc(C(=O)NO)cc3C2)cc1 [Compound I-18, 2-(4-tert-butylbenzoyl)-N-hydroxy-2,3,4,5-tetrahydro-1H-pyrrolo[1,2-a][1,4]diazepine-8-carboxamide] in this work.
An IC50 of 1000 to 10000 nM was found for O=C(NO)c1cc2n(n1)CCN(CCCn1cccc1)C2=O [Compound I-109, N-hydroxy-4-oxo-5-[3-(1H-pyrrol-1-yl)propyl]-4,5,6,7-tetrahydropyrazolo[1,5-a]pyrazine-2-carboxamide] in this work.
An IC50 of 1000 to 10000 nM was found for CC(C)(C)CC(=O)N1CCCn2cc(C(=O)NO)cc2C1 [Compound I-59, 2-(3,3-dimethylbutanoyl)-N-hydroxy-2,3,4,5-tetrahydro-1H-pyrrolo[1,2-a][1,4]diazepine-8-carboxamide] in this work.
An IC50 of 1000 to 10000 nM was found for O=C(NO)c1cc2n(c1)CCCN(C(=O)C1(c3ccc(Cl)cc3)CC1)C2 [Compound I-34, 2-{[1-(4-chlorophenyl)cyclopropyl]carbonyl}-N-hydroxy-2,3,4,5-tetrahydro-1H-pyrrolo[1,2-a][1,4]diazepine-8-carboxamide] in this work.
An IC50 of 1000 to 10000 nM was found for CCc1cccc(CC)c1NC(=O)N1CCn2cc(C(=O)NO)nc2C1 [Compound I-115, N7-(2,6-diethylphenyl)-N2-hydroxy-5,6-dihydroimidazo[1,2-a]pyrazine-2,7(8H)-dicarboxamide] in this work.
An IC50 of 1000 to 10000 nM was found for Cc1nc(CC(=O)N2CCn3nc(C(=O)NO)cc3C2)cs1 [Compound I-90, N-hydroxy-5-[(2-methyl-1,3-thiazol-4-yl)acetyl]-4,5,6,7-tetrahydropyrazolo[1,5-a]pyrazine-2-carboxamide] in this work.
An IC50 of 1000 to 10000 nM was found for Cn1nc(C(C)(C)C)cc1C(=O)N1CCCn2cc(C(=O)NO)cc2C1 [Compound I-63, 2-[(3-tert-butyl-1-methyl-1H-pyrazol-5-yl)carbonyl]-N-hydroxy-2,3,4,5-tetrahydro-1H-pyrrolo[1,2-a][1,4]diazepine-8-carboxamide] in this work.
An IC50 of 1000 to 10000 nM was found for O=C(NO)c1cc2n(c1)CCN(C(=O)c1cn3ccccc3n1)C2 [Compound I-3, N-hydroxy-2-(imidazo[1,2-a]pyridin-2-ylcarbonyl)-1,2,3,4-tetrahydropyrrolo[1,2-a]pyrazine-7-carboxamide] in this work.
An IC50 of 1000 to 10000 nM was found for CC(C)N1CCn2nc(C(=O)NO)cc2C1=O [Compound I-46, N-hydroxy-5-isopropyl-4-oxo-4,5,6,7-tetrahydropyrazolo[1,5-a]pyrazine-2-carboxamide] in this work.
An IC50 of over 10000 nM was found for Cc1ccc(C(=O)N2CCCn3cc(C(=O)NO)cc3C2)s1 [Compound I-69, N-hydroxy-2-[(5-methyl-2-thienyl)carbonyl]-2,3,4,5-tetrahydro-1H-pyrrolo [1,2-a][1,4]diazepine-8-carboxamide] in this work.
